Experimental data: patent publication US10703765B2 (priority 2014, dated 2020)
Counter-ions that a name gives are not always drawn.

Each compound was assayed against human σ1 receptor (Homo sapiens, UniProt Q99720) (assay: biochemical). Settings: not given.
Assay type: binding
Design: μ and σ1 dual binding: key to the marks not given beside the values

human σ1 receptor, sequence (Q99720 whole entry): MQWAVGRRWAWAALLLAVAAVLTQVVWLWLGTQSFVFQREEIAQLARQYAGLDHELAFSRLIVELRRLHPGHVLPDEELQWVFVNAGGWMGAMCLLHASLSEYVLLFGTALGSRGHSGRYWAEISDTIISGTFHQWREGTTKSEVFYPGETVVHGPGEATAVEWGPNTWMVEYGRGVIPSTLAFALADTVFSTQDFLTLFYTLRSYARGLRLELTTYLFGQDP

Question: Which “μ and σ1 dual binding” value does the source give for COCC1OC2(CCN(CCc3ccccn3)CC2)CN(c2ccccc2F)C1=O.Cl (centres unmarked) [Example 134, 4-(2-fluorophenyl)-2-(methoxymethyl)-9-(2-(pyridin-2-yl)ethyl)-1-oxa-4,9-diazaspiro[5.5]undecan-3-one hydrochloride] here?
Answer: The value was “++”.

Question: Which Ki does the source give for CC1OC2(CCN(CCc3cccc(C(N)=O)c3)CC2)CN(c2ccccc2)C1=O (centres unmarked) [Example 266, 3-(2-(2-methyl-3-oxo-4-phenyl-1-oxa-4,9-diazaspiro[5.5]undecan-9-yl)ethyl)benzamide] here?
Answer: Its Ki is under 500 nM.

Question: C[C@@H]1OC2(CCN(C[C@H](O)c3ccccc3)CC2)CN(c2ccccc2)C1=O [Example 151d, (S)-9-((R)-2-hydroxy-2-phenylethyl)-2-methyl-4-phenyl-1-oxa-4,9-diazaspiro[5.5]undecan-3-one] was tested. Which Ki did it give?
Answer: Its Ki is under 500 nM.

Question: With CC1OC2(CCN(CCc3cccc(N)n3)CC2)CN(c2ccccc2)C1=O (centres unmarked) [Example 29, 9-(2-(6-aminopyridin-2-yl)ethyl)-2-methyl-4-phenyl-1-oxa-4,9-diazaspiro[5.5]undecan-3-one] as the compound, how does the Ki read?
Answer: Its Ki is under 500 nM.

Question: How did the Ki turn out when CC1OC2(CCN(CCc3ccccc3NS(C)(=O)=O)CC2)CN(c2ccccc2)C1=O (centres unmarked) [Example 257, N-(2-(2-(2-methyl-3-oxo-4-phenyl-1-oxa-4,9-diazaspiro[5.5]undecan-9-yl)ethyl)phenyl)methanesulfonamide] was run?
Answer: The Ki was under 500 nM.

Question: With CC1OC2(CCN(CCc3cccc(NS(=O)(=O)C(C)C)c3)CC2)CN(c2ccccc2)C1=O (centres unmarked) [Example 261, N-(3-(2-(2-methyl-3-oxo-4-phenyl-1-oxa-4,9-diazaspiro[5.5]undecan-9-yl)ethyl)phenyl)propane-2-sulfonamide hydrochloride] as the compound, how does the Ki read?
Answer: The Ki was under 500 nM.

Question: For CC1COC2(CCN(CCc3ccccc3)CC2)CN1c1ccccc1 (centres unmarked) [Example 340, 3-methyl-9-phenethyl-4-phenyl-1-oxa-4,9-diazaspiro[5.5]undecane hydrochloride], which Ki is on record?
Answer: The Ki was under 500 nM.

Question: How did the “μ and σ1 dual binding” value turn out when COc1cccc(N2CCOC3(CCN(CCc4ccccc4)CC3)C2)c1.Cl [Example 333, 4-(3-methoxyphenyl)-9-phenethyl-1-oxa-4,9-diazaspiro[5.5]undecane hydrochloride] was run?
Answer: The value was “++”.

Question: With CC1OC2(CCN(CCOc3ccccc3)CC2)CN(c2ccccc2)C1=O.Cl (centres unmarked) [Example 72, 2-methyl-9-(2-phenoxyethyl)-4-phenyl-1-oxa-4,9-diazaspiro[5.5]undecan-3-one hydrochloride] as the compound, how does the “μ and σ1 dual binding” value read?
Answer: The value was “++”.

Question: For CC1OC2(CCN(CCc3csc(N)n3)CC2)CN(c2ccccc2F)C1=O (centres unmarked) [Example 303, 9-(2-(2-aminothiazol-4-yl)ethyl)-4-(2-fluorophenyl)-2-methyl-1-oxa-4,9-diazaspiro[5.5]undecan-3-one], which Ki is on record?
Answer: Its Ki is under 500 nM.

Question: With CC1OC2(CCN(CCc3ccccc3)CC2)CN(c2cccc(O)c2)C1=O (centres unmarked) [Example 294, 4-(3-hydroxyphenyl)-2-methyl-9-phenethyl-1-oxa-4,9-diazaspiro[5.5]undecan-3-one] as the compound, how does the “μ and σ1 dual binding” value read?
Answer: Its value is “++”.

Question: CC1OC2(CCN(CCc3cccc(NC(N)=O)c3)CC2)CN(c2ccccc2)C1=O (centres unmarked) [Example 262, 1-(3-(2-(2-methyl-3-oxo-4-phenyl-1-oxa-4,9-diazaspiro[5.5]undecan-9-yl)ethyl)phenyl)urea] was tested. Which Ki did it give?
Answer: Its Ki is under 500 nM.

Question: CC1OC2(CCN(CCc3ccccc3)CC2)CN(c2ccc3cnn(C)c3c2)C1=O.Cl (centres unmarked) [Example 201, 2-methyl-4-(1-methyl-1H-indazol-6-yl)-9-phenethyl-1-oxa-4,9-diazaspiro[5.5]undecan-3-one hydrochloride] was tested. Which “μ and σ1 dual binding” value did it give?
Answer: Its value is “++”.

Question: CC1OC2(CCN(CCc3ccncc3)CC2)CN(c2ccccc2)C1=O.Cl (centres unmarked) [Example 133, 2-methyl-4-phenyl-9-(2-(pyridin-4-yl)ethyl)-1-oxa-4,9-diazaspiro[5.5]undecan-3-one hydrochloride] was tested. Which “μ and σ1 dual binding” value did it give?
Answer: Its value is “++”.

Question: With CC(C)C1OC2(CCN(CCc3ccccc3)CC2)CN(c2ccccc2F)C1=O (centres unmarked) [Example 312, 4-(2-fluorophenyl)-2-isopropyl-9-phenethyl-1-oxa-4,9-diazaspiro[5.5]undecan-3-one hydrochloride] as the compound, how does the Ki read?
Answer: Its Ki is under 100 nM.

Question: With COc1ccccc1CCN1CCC2(CC1)CN(c1ccccc1)CCO2.Cl [Example 334, 9-(2-methoxyphenethyl)-4-phenyl-1-oxa-4,9-diazaspiro[5.5]undecane hydrochloride] as the compound, how does the “μ and σ1 dual binding” value read?
Answer: The value was “++”.

Question: For CC1OC2(CCN(CCc3cc(C(F)(F)F)ccn3)CC2)CN(c2ccccc2)C1=O (centres unmarked) [Example 28, 2-methyl-4-phenyl-9-(2-(4-(trifluoromethyl)pyridin-2-yl)ethyl)-1-oxa-4,9-diazaspiro[5.5]undecan-3-one hydrochloride], which Ki is on record?
Answer: The Ki was under 100 nM.

Question: Which Ki does the source give for CC1OC2(CCN(CCc3ccncc3Cl)CC2)CN(c2ccccc2)C1=O (centres unmarked) [Example 50, 9-(2-(3-chloropyridin-4-yl)ethyl)-2-methyl-4-phenyl-1-oxa-4,9-diazaspiro[5.5]undecan-3-one hydrochloride] here?
Answer: The Ki was under 500 nM.

Same assay, conditions: combined class from Ki-σ1 (human σ1 receptor, A1) and Ki-μ (human μ-opioid receptor, A2) radioligand binding

Question: Which “μ and σ1 dual binding” value does the source give for CC(C)C(=O)Nc1cccc(CCN2CCC3(CC2)CN(c2ccccc2)C(=O)C(C)O3)c1 (centres unmarked) [Example 247, N-(3-(2-(2-methyl-3-oxo-4-phenyl-1-oxa-4,9-diazaspiro[5.5]undecan-9-yl)ethyl)phenyl)isobutyramide] here?
Answer: The value was “++”.

Same assay, conditions: read-out: μ and σ1 dual binding

Question: With CC1OC2(CCN(CCc3ccccc3)CC2)CN(c2ncccc2C(F)(F)F)C1=O (centres unmarked) [Example 218, 2-methyl-9-phenethyl-4-(3-(trifluoromethyl)pyridin-2-yl)-1-oxa-4,9-diazaspiro[5.5]undecan-3-one] as the compound, how does the Ki read?
Answer: The Ki was under 500 nM.

Question: How did the Ki turn out when Oc1cccc(N2CCOC3(CCN(CCc4ccccc4)CC3)C2)c1 [Example 316, 3-(9-phenethyl-1-oxa-4,9-diazaspiro[5.5]undecan-4-yl)phenol] was run?
Answer: The Ki was under 500 nM.

Question: With CC1OC2(CCN(CCc3ccc([N+](=O)[O-])cn3)CC2)CN(c2ccccc2)C1=O (centres unmarked) [Example 23, 2-methyl-9-(2-(5-nitropyridin-2-yl)ethyl)-4-phenyl-1-oxa-4,9-diazaspiro[5.5]undecan-3-one] as the compound, how does the Ki read?
Answer: Its Ki is over 500 nM.

Question: With CC(=O)Nc1ccnc(CCN2CCC3(CC2)CN(c2ccccc2)C(=O)C(C)O3)c1 (centres unmarked) [Example 253, N-(2-(2-(2-methyl-3-oxo-4-phenyl-1-oxa-4,9-diazaspiro[5.5]undecan-9-yl)ethyl)pyridin-4-yl)acetamide hydrochloride] as the compound, how does the Ki read?
Answer: The Ki was over 500 nM.

Question: With CC1OC2(CCN(CCc3csc(NC(=O)OC(C)(C)C)n3)CC2)CN(c2ccccc2F)C1=O (centres unmarked) [Example 140, tert-butyl (4-(2-(4-(2-fluorophenyl)-2-methyl-3-oxo-1-oxa-4,9-diazaspiro[5.5]undecan-9-yl)ethyl)thiazol-2-yl)carbamate] as the compound, how does the Ki read?
Answer: Its Ki is over 500 nM.

Question: For COC[C@@H]1OC2(CCN(CCc3ccccc3)CC2)CN(c2ccccc2)C1=O [Example 12a, (S)-2-(methoxymethyl)-9-phenethyl-4-phenyl-1-oxa-4,9-diazaspiro[5.5]undecan-3-one], which Ki is on record?
Answer: The Ki was under 500 nM.

Question: For CC1OC2(CCN(CCc3ccccc3[N+](=O)[O-])CC2)CN(c2ccccc2)C1=O (centres unmarked) [Example 68, 2-methyl-9-(2-nitrophenethyl)-4-phenyl-1-oxa-4,9-diazapspiro[5.5]undecan-3-one], which Ki is on record?
Answer: Its Ki is over 500 nM.

Question: CC1OC2(CCN(CCn3c(=O)oc4ccccc43)CC2)CN(c2ccccc2)C1=O (centres unmarked) [Example 74, 3-(2-(2-methyl-3-oxo-4-phenyl-1-oxa-4,9-diazaspiro[5.5]undecan-9-yl)ethyl)benzo[d]oxazol-2(3H)-one hydrochloride] was tested. Which Ki did it give?
Answer: The Ki was under 500 nM.

Question: How did the Ki turn out when CC(=O)Nc1cccnc1CCN1CCC2(CC1)CN(c1ccccc1F)C(=O)C(C)O2 (centres unmarked) [Example 250, N-(2-(2-(4-(2-fluorophenyl)-2-methyl-3-oxo-1-oxa-4,9-diazaspiro[5.5]undecan-9-yl)ethyl)pyridin-3-yl)acetamide] was run?
Answer: The Ki was over 500 nM.

Question: COc1cccc(CCN2CCC3(CC2)CN(c2ccccc2)C(=O)CO3)c1 [Example 132, 9-(3-methoxyphenethyl)-4-phenyl-1-oxa-4,9-diazaspiro[5.5]undecan-3-one] was tested. Which Ki did it give?
Answer: Its Ki is under 500 nM.

Question: For CNC(=O)CCN1CC2(CCN(CCc3ccccc3)CC2)OC2(CC2)C1=O [Example 275, N-methyl-3-[13-oxo-8-phenethyl-4-oxa-8,12-diazadispiro[2.1.5.3]tridecan-12-yl]propanamide hydrochloride], which Ki is on record?
Answer: Its Ki is over 500 nM.

Question: With CC1OC2(CCN(CCc3ncccc3F)CC2)CN(c2cccnc2C(F)(F)F)C1=O (centres unmarked) [Example 48, 9-(2-(3-fluoropyridin-2-yl)ethyl)-2-methyl-4-(2-(trifluoromethyl)pyridin-3-yl)-1-oxa-4,9-diazaspiro[5.5]undecan-3-one] as the compound, how does the Ki read?
Answer: Its Ki is over 500 nM.

Question: Which Ki does the source give for CC1OC2(CCN(CCc3ccc(C#N)cn3)CC2)CN(c2ccccc2)C1=O (centres unmarked) [Example 36, 6-(2-(2-methyl-3-oxo-4-phenyl-1-oxa-4,9-diazaspiro[5.5]undecan-9-yl)ethyl)nicotinonitrile hydrochloride] here?
Answer: Its Ki is over 500 nM.

Question: With CC1OC2(CCN(CCc3ccccc3)CC2)CN(c2cccc(N)c2)C1=O (centres unmarked) [Example 227, 4-(3-aminophenyl)-2-methyl-9-phenethyl-1-oxa-4,9-diazaspiro[5.5]undecan-3-one] as the compound, how does the Ki read?
Answer: Its Ki is over 500 nM.

Question: For C[C@H]1OC2(CCN(CCc3ccccc3F)CC2)CN(c2ncccc2C(F)(F)F)C1=O [Example 222a, (R)-9-(2-fluorophenethyl)-2-methyl-4-(3-(trifluoromethyl)pyridin-2-yl)-1-oxa-4,9-diazaspiro[5.5]undecan-3-one], which Ki is on record?
Answer: The Ki was under 500 nM.

Question: Which Ki does the source give for O=C1CO[C@@]2(CCN(Cc3ccccc3)C2)CN1c1ccccc1 [Example 349, (R)-2-benzyl-9-phenyl-6-oxa-2,9-diazaspiro[4.5]decan-8-one] here?
Answer: Its Ki is over 500 nM.

Question: For CC1OC2(CCN(CCc3csc(NC(=O)OC(C)(C)C)n3)CC2)CN(c2cnccc2C(F)(F)F)C1=O (centres unmarked) [Example 121, tert-butyl (4-(2-(2-methyl-3-oxo-4-(4-(trifluoromethyl)pyridin-3-yl)-1-oxa-4,9-diazaspiro[5.5]undecan-9-yl)ethyl)thiazol-2-yl)carbamate], which Ki is on record?
Answer: The Ki was over 500 nM.

Question: Which Ki does the source give for O=C1CO[C@]2(CCN(Cc3ccccc3)C2)CN1c1ccccc1 [Example 350, (S)-2-benzyl-9-phenyl-6-oxa-2,9-diazaspiro[4.5]decan-8-one] here?
Answer: Its Ki is over 500 nM.

Question: With CC1(C)OC2(CCN(CCc3ccccc3)CC2)CN(c2ccccc2)C1=O [Example 18, 2,2-dimethyl-9-phenethyl-4-phenyl-1-oxa-4,9-diazaspiro[5.5]undecan-3-one] as the compound, how does the Ki read?
Answer: Its Ki is under 100 nM.
